Assay results taken from publication PMC3871636 (PLoS ONE, 2013).

Columns and labels:
[1] = target: T1, double-labeled CYP3A4 (C64/C468)-ER/DY (Homo sapiens, UniProt P08684, S18F, form not given); assay: Steady-state LRET titration (delayed emission); format: binding
Description: (§1) All absorbance and fluorescence assays (including the time-resolved fluorescence measurements) were performed at a protein concentration ≤1 µM at 25°C with continuous stirring. Absorbance spectra were recorded with an S2000 rapid scanning CCD spectrometer (Ocean Optics). Ligand binding assays were done in 100 mM Na-Hepes buffer, pH 7.4, containing 0.5 mM EDTA.
(§2) Fluorescence-based ligand binding assays were done under anaerobic conditions. Anaerobiosis was achieved using an oxygen-scavenging system consisting of protecatechuate-3,4-dioxygenase (0.5 units/ml) and 5 mM protocatechuic acid. The steady state and time-resolved phosphorescence measurements were performed with the use of a Cary Eclipse fluorescence spectrophotometer (Varian/Agilent Technologies). The excitation wavelength was set to 540 nm. Spectra were taken from 650 to 860 nm with 100 µs delay.
(§3) Quantitative interpretation of LRET results was also based on the use of PCA applied to a series of emission spectra normalized on integral intensity. […] Intensity of the donor and acceptor fluorescence obtained in this way were used in determination of the efficiency of steady-state LRET using the equation [drawing 1] (Eq.1) where I ad is emission intensity of the acceptor, I da is the residual donor emission in the presence of acceptor (I da), Φ a and Φ d are the quantum yield of the fluorescence of acceptor and the quantum yield of the phosphorescence of donor, respectively.
(§4) Distances were calculated using the equation: [drawing 3] (Eq.3) where R 0 is the Förster distance, and R is the distance between the donor and acceptor. R 0 was calculated with the use of PhotoChemCad software. In these calculations, we used the values of the orientation factor (κ^2) and the refractive index (n) of 0.667 and 1.4, respectively.
(§5) When fitting the results of titration experiments, where the changes in the monitored signal A S (fraction of the enzyme in the high-spin state, intensity or the lifetime of the donor phosphorescence at a given substrate concentration) were assumed to be proportional to [ES], this equation was complemented with the offset A 0 and the scaling factor A max to yield the following relationship: [drawing 5] (Eq.5)

[2] = target: CYP3A4 (double-labeled (C64/C468)-DY/ER) (Homo sapiens, UniProt P08684, form not given/S18F); assay: Steady-state LRET titration (delayed emission); format: binding; conditions: human, purified double-labeled CYP3A4 C64/C468-DY/ER protein, pH 7.4
Sequence of CYP3A4 (double-labeled (C64/C468)-DY/ER) (P08684 13-503 S18F, form open): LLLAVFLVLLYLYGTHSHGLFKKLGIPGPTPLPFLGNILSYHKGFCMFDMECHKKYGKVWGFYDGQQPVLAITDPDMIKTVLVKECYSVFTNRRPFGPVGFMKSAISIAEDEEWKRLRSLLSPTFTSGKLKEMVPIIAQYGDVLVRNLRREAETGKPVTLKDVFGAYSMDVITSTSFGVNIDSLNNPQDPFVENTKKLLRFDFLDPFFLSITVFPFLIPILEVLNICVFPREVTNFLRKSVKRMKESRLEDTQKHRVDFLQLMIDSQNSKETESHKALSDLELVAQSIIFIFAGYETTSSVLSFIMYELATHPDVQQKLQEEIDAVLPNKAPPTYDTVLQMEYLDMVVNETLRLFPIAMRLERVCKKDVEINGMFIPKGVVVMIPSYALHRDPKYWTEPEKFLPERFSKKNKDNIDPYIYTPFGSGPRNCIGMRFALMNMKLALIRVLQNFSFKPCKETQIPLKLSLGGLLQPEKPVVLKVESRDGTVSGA
Description: as §1, §2, §3, §4, §5

[3] = target: CYP3A4 (double-labeled (C64/C468)-ER/DY) (Homo sapiens, UniProt P08684, form not given/S18F); assay: Steady-state LRET titration (delayed emission); format: binding; conditions: human, purified double-labeled CYP3A4 C64/C468-ER/DY protein, pH 7.4
Sequence of CYP3A4 (double-labeled (C64/C468)-ER/DY) (P08684 13-503 S18F, form open): as above
Description: as §1, §2, §3, §4, §5

[4] = target: T2, double-labeled CYP3A4 C377/C468-DY/ER (Homo sapiens, UniProt P08684, S18F, form not given); assay: Steady-state LRET titration (delayed emission); format: binding; conditions: Table S2; protein C377/C468-ER/DY; same ligand concentrations
T2 sequence (P08684 13-503 S18F, form open): as above
Description: as §1, §2, §3, §4, §5

[5] = target: T3, double-labeled CYP3A4 (C64/C468)-DY/ER (Homo sapiens, UniProt P08684, S18F, form not given); assay: Steady-state LRET titration (delayed emission); format: binding
T3 sequence (P08684 13-503 S18F, form open): as above
Description: as §1, §2, §3, §4, §5

[6] = target: CYP3A4 (double-labeled C64/C468-ER/DY) (Homo sapiens, UniProt P08684, form not given/S18F); assay: Ligand-induced spin shift, absorbance titration; format: binding; conditions: human, purified double-labeled CYP3A4 C64/C468-ER/DY protein, pH 7.4
Sequence of CYP3A4 (double-labeled C64/C468-ER/DY) (P08684 13-503 S18F, form open): as above
Description: as §1
(§6) Absorbance spectra obtained in titration experiments were analyzed with a principal component analysis (PCA) procedure complemented with least-square approximation of the principal vectors with a combination of the prototypical spectra of the CYP3A4 low-spin, high-spin and Type II-substrate-bound ferric CYP3A4 P450 states as described, [31].
as §5

[7] = target: CYP3A4 (C64/C468 mutant) (Homo sapiens, UniProt P08684, form not given/S18F); assay: Ligand-induced spin shift, absorbance titration; format: binding; conditions: human, purified CYP3A4(C64/C468) mutant protein, pH 7.4
Sequence of CYP3A4 (C64/C468 mutant) (P08684 13-503 S18F, form open): as above
Description: as §1, §6, §5

[8] = target: CYP3A4 (C377/C468 mutant) (Homo sapiens, UniProt P08684, form not given/S18F); assay: Ligand-induced spin shift, absorbance titration; format: binding; conditions: human, purified CYP3A4(C377/C468) mutant protein, pH 7.4
Sequence of CYP3A4 (C377/C468 mutant) (P08684 13-503 S18F, form open): as above
Description: as §1, §6, §5

[9] = target: T1, double-labeled CYP3A4 (C64/C468)-ER/DY; assay: Time-resolved LRET (phosphorescence lifetime measurements)
Excerpt: (§7) The excitation wavelength was set to 540 nm.

[10] = target: T2, double-labeled CYP3A4 C377/C468-DY/ER; assay: as above
Excerpt: as §7

[11] = target: T3, double-labeled CYP3A4 (C64/C468)-DY/ER; assay: as above
Excerpt: as §7

[12] = target: T4, double-labeled CYP3A4 C64/C121-DY/ER (Homo sapiens, UniProt P08684, A121C/C239S/C377S/C468A/C98S/S18F); assay: as above
T4 sequence (P08684 with tags, fused parts or gaps S18F/C98S/A121C/C239S/C377S/C468A limits assumed): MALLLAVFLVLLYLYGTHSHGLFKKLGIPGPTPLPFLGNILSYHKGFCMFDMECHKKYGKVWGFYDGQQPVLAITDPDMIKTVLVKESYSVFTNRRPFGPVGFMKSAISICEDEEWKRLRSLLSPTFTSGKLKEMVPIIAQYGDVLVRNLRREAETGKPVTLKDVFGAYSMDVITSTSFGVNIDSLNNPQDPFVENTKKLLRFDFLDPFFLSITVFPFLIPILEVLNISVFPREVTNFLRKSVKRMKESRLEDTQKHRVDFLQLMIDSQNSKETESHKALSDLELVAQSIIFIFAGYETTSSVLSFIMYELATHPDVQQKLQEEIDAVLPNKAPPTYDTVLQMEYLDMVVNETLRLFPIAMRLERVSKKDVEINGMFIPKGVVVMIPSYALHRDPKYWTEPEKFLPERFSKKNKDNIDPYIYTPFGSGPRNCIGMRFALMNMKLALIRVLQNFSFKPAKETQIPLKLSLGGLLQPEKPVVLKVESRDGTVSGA
Description: as §1, §2
The treatment of the time-resolved decay traces was performed using a bi-exponential approximation. The efficiency of time-resolved LRET was calculated using the equation [drawing 2] (Eq.2)
In this equation τda and τd designate the average lifetime of the excited state of the donor in the presence and absence of the acceptor, respectively. These average lifetimes are determined as τ = α1τ1+α2τ2, where τ1,2 and α1,2 stay for the lifetime and the relative amplitude of each of the two exponential terms. In our calculations of the lifetime in double-labeled C64/C468, C377/C468 and C64/C121 proteins we used the lifetimes of phosphorescence measured with the respective proteins labeled with ERIA at a label:protein ratio 2∶1 as the estimates of τd.
as §4

[13] = target: T4, double-labeled CYP3A4 C64/C121-DY/ER; assay: Steady-state LRET titration (delayed emission); conditions: Table S2; protein C64/C121-ER/DY; same ligand concentrations
Description: as §1, §2, §3, §4, §5

[14] = Table S2, C64/C468-ER/DY, same ligand concentrations
[15] = Table S2, C64/C468-DY/ER, same ligand concentrations
[16] = Table S1, (C64/C468)-ER/DY, same ligand concentrations
[17] = Table S1, protein (C377/C468)-ER/DY, same ligand concentrations
[18] = Table S2, protein C377/C468-ER/DY, same ligand concentrations
[19] = Table S1, (C64/C468)-DY/ER, same ligand concentrations
[20] = Table S1, protein (C64/C121)-ER/DY, same ligand concentrations
[21] = Table S2, protein C64/C121-ER/DY, same ligand concentrations

T1 sequence (P08684 13-503 S18F, form open): as the sequence (P08684 13-503 S18F, form open) above

## C[C@]12CC[C@H]3[C@@H](CCC4=CC(=O)CC[C@@]43C)[C@@H]1CC[C@@H]2O [Testosterone, testosterone]
[1]; (C64/C468)-ER/DY
  ΔR (change in interprobe distance), steady-state fluorescence: 3.1±1.0 Å
[1]; [14]
  R (interprobe distance with ligand), steady-state measurements: 42.2 ± 1.0 Å
  ΔR, steady-state measurements: 3.1 ± 1.0 Å
[2]
  Kd: 16.4 ± 3.5 µM
[3]
  Kd: 22.8 ± 3.6 µM
[4]
  R (interprobe distance with ligand), steady-state measurements: 46.7 ± 0.7 Å
  ΔR, steady-state measurements: 2.0 ± 0.7 Å
[5]; (C64/C468)-DY/ER
  ΔR (change in interprobe distance), steady-state fluorescence: 5.5±1.9 Å
[5]; [15]
  R (interprobe distance with ligand), steady-state measurements: 40.4 ± 1.9 Å
  ΔR, steady-state measurements: 5.5 ± 1.9 Å
[6]
  Kd: 38 ± 6 µM
[7]
  Kd: 39 ± 10 µM
[8]
  Kd: 51 ± 8 µM
[9]; (C64/C468)-ER/DY, nearly-saturating ligand: ANF 100 µM, bromocriptine 2.5 µM, cholesterol 50 µM, testosterone 100 µM
  ΔR (change in interprobe distance), lifetime measurements: 4.5±0.5 Å
[9]; Table S1, (C64/C468)-ER/DY, 1-PB 40 µM, ANF 100 µM, BCT 2.5 µM, cholesterol 100 µM, testosterone 100 µM, bi-exponential fit
  τ1 (phosphorescence decay time with ligand): 67 ± 6 µs
[9]; [16]
  F1 (fraction of first exponential): 48 ± 2%
  τ2 (phosphorescence decay time with ligand): 267 ± 11 µs
  τav (average phosphorescence lifetime with ligand): 171 ± 4 µs
[9]; [14]
  R (interprobe distance with ligand), lifetime measurements: 40.8 ± 0.6 Å
  ΔR, lifetime measurements: 4.5 ± 0.6 Å
[10]; Table S1, protein (C377/C468)-ER/DY, 1-PB 40 µM, ANF 100 µM, BCT 2.5 µM, cholesterol 100 µM, testosterone 100 µM, bi-exponential fit
  τ1 (phosphorescence decay time with ligand): 42 ± 9 µs
[10]; [17]
  F1 (fraction of first exponential): 26 ± 7%
  τ2 (phosphorescence decay time with ligand): 193 ± 5 µs
  τav (average phosphorescence lifetime with ligand): 152 ± 12 µs
[10]; [18]
  R (interprobe distance with ligand), lifetime measurements: 45.3 ± 3.0 Å
  ΔR, lifetime measurements: 8.5 ± 3.0 Å
[11]; Table S1, (C64/C468)-DY/ER, 1-PB 40 µM, ANF 100 µM, BCT 2.5 µM, cholesterol 100 µM, testosterone 100 µM, bi-exponential fit
  τ1 (phosphorescence decay time with ligand): 69 ± 1 µs
[11]; [19]
  F1 (fraction of first exponential): 39 ± 8%
  τ2 (phosphorescence decay time with ligand): 247 ± 2 µs
  τav (average phosphorescence lifetime with ligand): 176 ± 2 µs
[11]; [15]
  R (interprobe distance with ligand), lifetime measurements: 41.6 ± 0.3 Å
  ΔR, lifetime measurements: 4.8 ± 0.3 Å
[12]; Table S1, protein (C64/C121)-ER/DY, 1-PB 40 µM, ANF 100 µM, BCT 2.5 µM, cholesterol 100 µM, testosterone 100 µM, bi-exponential fit
  τ1 (phosphorescence decay time with ligand): 66 ± 9 µs
[12]; [20]
  F1 (fraction of first exponential): 38 ± 4%
  τ2 (phosphorescence decay time with ligand): 228 ± 23 µs
  τav (average phosphorescence lifetime with ligand): 165 ± 9 µs
[12]; [21]
  R (interprobe distance with ligand), lifetime measurements: 36.9 ± 0.7 Å
  ΔR, lifetime measurements: 1.9 ± 0.7 Å
[13]
  R (interprobe distance with ligand), steady-state measurements: 43.9 ± 0.5 Å
  ΔR, steady-state measurements: 1.3 ± 0.5 Å
